Legend:
[1] = target: T1, XR (xylose reductase, xyl1) (Trichoderma reesei, UniProt Q876L8); test: NADPH oxidation at […] nm in cell-free extract of expressing yeast; type: biochemical; conditions: 50 mM xylose, 0.34 mM NADPH, 25 mM potassium phosphate pH 7.0, 30 C
T1 construct: cell-free extract
T1 sequence (Q876L8 1-324): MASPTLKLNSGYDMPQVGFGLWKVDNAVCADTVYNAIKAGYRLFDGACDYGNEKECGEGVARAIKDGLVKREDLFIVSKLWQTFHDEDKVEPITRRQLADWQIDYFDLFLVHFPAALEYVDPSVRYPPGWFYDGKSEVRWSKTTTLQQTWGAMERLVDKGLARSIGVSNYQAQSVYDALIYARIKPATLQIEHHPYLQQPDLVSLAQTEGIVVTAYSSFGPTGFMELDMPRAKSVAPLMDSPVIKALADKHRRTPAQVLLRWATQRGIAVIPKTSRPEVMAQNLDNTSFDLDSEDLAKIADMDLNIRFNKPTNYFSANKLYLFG

[2] = target: T2, XDH (xylitol dehydrogenase, xdh1) (Trichoderma reesei, UniProt Q876R2); test: NAD+ reduction at […] nm in cell-free extract of expressing yeast; type: biochemical; conditions: 0.15 M xylitol, 0.4 mM NAD+, 25 mM potassium phosphate pH 7.0
T2 construct: cell-free extract
T2 sequence (Q876R2 1-363): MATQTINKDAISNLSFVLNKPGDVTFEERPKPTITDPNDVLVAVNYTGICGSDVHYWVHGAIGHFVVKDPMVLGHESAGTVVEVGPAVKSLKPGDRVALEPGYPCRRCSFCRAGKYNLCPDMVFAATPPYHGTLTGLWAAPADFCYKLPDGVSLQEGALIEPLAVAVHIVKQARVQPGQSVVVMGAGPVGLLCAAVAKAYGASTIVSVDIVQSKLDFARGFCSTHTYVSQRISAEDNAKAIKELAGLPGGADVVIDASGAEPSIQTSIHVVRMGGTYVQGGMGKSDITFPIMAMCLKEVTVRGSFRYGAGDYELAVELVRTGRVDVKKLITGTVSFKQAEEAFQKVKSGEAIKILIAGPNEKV

Row | SMILES | NADPH oxidation at 340 nm in cell-free extract of expressing yeast [1] | NAD+ reduction at 340 nm in cell-free extract of expressing yeast [2]
1 | NC(=O)C1=CN([C@@H]2O[C@H](COP(=O)(O)OP(=O)(O)OC[C@H]3O[C@@H](n4cnc5c(N)ncnc54)[C@H](OP(=O)(O)O)[C@@H]3O)[C@@H](O)[C@H]2O)C=CC1 [NADPH] | measuring the oxidation of the reduced form of nicotinamide adenine dinucleotide phosphate (NADPH) | 
2 | NC(=O)c1ccc[n+]([C@@H]2O[C@H](COP(=O)(O)OP(=O)(O)OC[C@H]3O[C@@H](n4cnc5c(N)ncnc54)[C@H](O)[C@@H]3O)[C@@H](O)[C@H]2O)c1 [NAD^+] |  | measuring the reduction of nicotinamide adenine dinucleotide (NAD^+) to NADH

Reference: article PMC4417197, “Engineering Saccharomyces pastorianus for the co-utilisation of xylose and cellulose from biomass” (Microbial Cell Factories, 2015)
